“Also recorded” adds a separate entry of the source. Like-named read-outs stand apart in the source and are kept apart here.
Tests used:
P-gp = settings: in vitro; ref Lee et al., 2015; cited from earlier work
CYP3A4/5 [1] = settings: in vitro; ref Lee et al., 2015; cited from earlier work
[2] = set-up: method as in Lee et al., 2015; settings: in vivo; ref Lee et al., 2015; cited from earlier work
CYP3A4/5 [3] = experiment: CYP3A4/5 phenotyping with midazolam as probe; settings: patient, 8 days after hospital admission, concomitant atorvastatin 40 mg q.d.
Description: Midazolam was used as a probe to measure the joint activity of CYP3A4/5 as previously described ([Bosilkovska et al., 2014]). Phenotyping was performed 8 days after hospital admission with concomitant treatment of insulin, enoxaparin 60 mg b.i.d., atorvastatin 40 mg q.d.

CYP3A4/5 [4] = settings: ref Bosilkovska et al., 2014, cited from earlier work
[5] = Rivaroxaban plasma concentrations by LC-MS/MS in the patient; type: in vivo, human
Description: Rivaroxaban determination was performed using a fully validated LC-MS/MS method according to guidelines of the US Food and Drug Administration and the International Conference on Harmonization. The method was accurate and precise across the dynamic range of 0.5–1000 ng/ml. The LOQ was 0.5 ng/ml. The mean precision and accuracy, calculated from the QCs, were 10.2 and 112%, respectively.
A plasma sample of 40 μl was processed by protein precipitation extraction using acetonitrile (200 μL). Separation was performed on a C18 column (50 mm × 2.1 mm ID; 2.6 μm particle size) and under gradient conditions using formic acid 10 mM in water and formic acid 10 mM in acetonitrile. Detection was by tandem-MS in positive mode using a Qtrap API 6500 from AB sciex (Ontario, Canada) using rivaroxaban-d4 as internal standard (20 ng/ml).

Factor Xa = target: T1, Factor Xa (Homo sapiens, UniProt P00742); experiment: Anti-Xa activity, chromogenic assay (DiXal kit) in patient plasma; type: in vivo; settings: patient on 20 mg q.d.
T1 construct: purchased Hyphen Biomed, Neuville-Sur-Oise, France
Description: Anti-Xa activity was measured with a chromogenic assay using the DiXal® kit (Hyphen Biomed, Neuville-Sur-Oise, France) and a BCS XP instrument (Siemens, Marburg, Germany). This method has a limit of detection of 10 ng/ml. No information is given by the manufacturer regarding the limit of quantification (LOQ). However, previous studies have shown a LOQ of 20–30 ng/ml ([Douxfils et al., 2013]). The accuracy and precision calculated from the quality controls (QCs) were 107.0 and 8.8%, respectively, ([Asmis et al., 2012]). An excellent correlation between this method and liquid chromatography-tandem mass spectrometry (LC-MS/MS) has been shown (Spearman correlation coefficient of 0.96) ([Douxfils et al., 2013]).

[6] = set-up: method as in Mueck et al., 2013; settings: healthy volunteers, ref Mueck et al., 2013, cited from earlier work
Mdr1a/Mdr1b/Bcrp = tested on: Mdr1a/Mdr1b/Bcrp; set-up: method as in Gong et al., 2013; settings: 4 h after administration; ref Gong et al., 2013; cited from earlier work
[7] = Case report: laboratory testing at hospital admission under rivaroxaban; type: in vivo, human; settings: 3 months on rivaroxaban 20 mg q.d., normal range 140–180 g/l
[8] = set-up: method as in Grillo et al., 2012; settings: PBPK simulation, concurrent renal impairment plus erythromycin, elderly; ref Grillo et al., 2012; cited from earlier work
[9] = set-up: method as in Mueck et al., 2014; settings: ref Mueck et al., 2014, cited from earlier work
[10] = set-up: method as in Moore et al., 2014; settings: moderate renal impairment plus erythromycin vs normal renal function, rivaroxaban 10 mg alone; ref Moore et al., 2014; cited from earlier work
[11] = with ketoconazole 200 mg q.d. vs rivaroxaban alone
[12] = with ketoconazole 400 mg q.d. vs rivaroxaban alone

T1 sequence (P00742 235-488 limits assumed): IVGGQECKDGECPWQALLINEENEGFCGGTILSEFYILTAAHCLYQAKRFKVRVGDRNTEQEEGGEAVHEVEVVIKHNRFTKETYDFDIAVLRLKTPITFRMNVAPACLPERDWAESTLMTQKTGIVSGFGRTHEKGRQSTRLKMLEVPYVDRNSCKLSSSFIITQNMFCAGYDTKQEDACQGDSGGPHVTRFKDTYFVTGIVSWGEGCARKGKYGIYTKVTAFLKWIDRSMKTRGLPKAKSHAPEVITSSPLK
T1 sequence (P00742 41-179 partner limits assumed): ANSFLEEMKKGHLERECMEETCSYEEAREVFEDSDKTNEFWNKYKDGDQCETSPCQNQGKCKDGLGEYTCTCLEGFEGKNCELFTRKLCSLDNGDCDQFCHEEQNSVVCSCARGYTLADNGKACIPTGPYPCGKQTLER

Question: Which “Inhibition of P-gp activity” value (P-gp) does the source give for `CC(C)c1c(C(=O)Nc2ccccc2)c(-c2ccccc2)c(-c2ccc(F)cc2)n1CC[C@@H](O)C[C@@H](O)CC(=O)O` [atorvastatin] here?
Answer: Its value is “not P-gp activity”.

Question: And the “Inhibition of CYP3A4/5 activity” value (CYP3A4/5 [1])?
Answer: Its value is “inhibited”.

Question: What about the “Impact on nifedipine pharmacokinetics” value [2] of the same compound?
Answer: Its value is “no impact”.

Question: With `Cc1ncc2n1-c1ccc(Cl)cc1C(c1ccccc1F)=NC2` [midazolam] as the compound, how does the OH-midazolam/midazolam metabolic ratio (CYP3A4/5 [3]) read?
Answer: The OH-midazolam/midazolam metabolic ratio was 0.31.

Question: What about the OH-midazolam/midazolam metabolic ratio (CYP3A4/5 [4]; healthy volunteers in the presence of a CYP inhibitor (voriconazole)) of the same compound?
Answer: Its OH-midazolam/midazolam metabolic ratio is 0.22.

Question: And the OH-midazolam/midazolam metabolic ratio (CYP3A4/5 [4]; healthy volunteers without enzyme inhibitor/inducer)?
Answer: Its OH-midazolam/midazolam metabolic ratio is 0.50.

Question: With `O=C(NC[C@H]1CN(c2ccc(N3CCOCC3=O)cc2)C(=O)O1)c1ccc(Cl)s1` [rivaroxaban] as the compound, how does the Rivaroxaban plasma concentrations ([5]; 48 h after the last rivaroxaban dose, patient on 20 mg q.d., LC-MS/MS) read?
Answer: Its Rivaroxaban plasma concentrations is 88.3 ng/mL.

Question: What about the Rivaroxaban plasma concentrations ([5]; 96 h (4 days) after the last rivaroxaban dose, patient on 20 mg q.d., LC-MS/MS) of the same compound?
Answer: Its Rivaroxaban plasma concentrations is 35.6 ng/mL.

Question: And the half-life ([5]; human, plasma, oral, 20 mg q.d. Patient, homozygous ABCB1 variant carrier, moderate acute renal failure, read-out: Estimated half-life)?
Answer: The half-life was 24 to 30 h.

Question: And the concentration at 48 h ([5]; human, plasma, oral, 20 mg q.d., 48 h after the last rivaroxaban dose, patient on 20 mg q.d., LC-MS/MS)?
Answer: The concentration at 48 h was 88 ng/mL.

Question: And the concentration at 72 h ([5]; human, plasma, oral, 20 mg q.d., 72 h after the last rivaroxaban dose, patient on 20 mg q.d., LC-MS/MS)?
Answer: The concentration at 72 h was 70.5 ng/mL.

Question: What about the concentration at 96 h ([5]; human, plasma, oral, 20 mg q.d., 96 h (4 days) after the last rivaroxaban dose, patient on 20 mg q.d., LC-MS/MS) of the same compound?
Answer: The concentration at 96 h was 36 ng/mL.

Question: What about the “Estimated half-life relative to usually reported” value ([5]; patient vs usually reported half-life) of the same compound?
Answer: Its value is 2–3 times.

Question: And the Anti-Xa activity (Factor Xa; 24 h after the last rivaroxaban dose)?
Answer: The Anti-Xa activity was 231 ng/mL.

Question: What about the Anti-Xa activity (Factor Xa; 48 h after the last rivaroxaban dose) of the same compound?
Answer: Its Anti-Xa activity is 110 ng/mL.

Question: And the Anti-Xa activity (Factor Xa; 60 h after the last rivaroxaban dose)?
Answer: The Anti-Xa activity was 81 ng/mL.

Question: What about the Anti-Xa activity (Factor Xa; 72 h after the last rivaroxaban dose) of the same compound?
Answer: The Anti-Xa activity was 66 ng/mL.

Question: What about the Anti-Xa activity (Factor Xa; 84 h after the last rivaroxaban dose) of the same compound?
Answer: Its Anti-Xa activity is 66 ng/mL.

Question: And the Anti-Xa activity (Factor Xa; 96 h (4 days) after the last rivaroxaban dose)?
Answer: Its Anti-Xa activity is 34 ng/mL.

Question: What about the “Increase in rivaroxaban AUC” value [6, 11] of the same compound?
Answer: Its value is 82%.

Question: What about the “Increase in rivaroxaban Cmax” value [6, 11] of the same compound?
Answer: The value was 53%.

Question: What about the “Increase in rivaroxaban AUC” value [6, 12] of the same compound?
Answer: Its value is 158%.

Question: And the “Increase in rivaroxaban Cmax” value [6, 12]?
Answer: The value was 72%.

Question: What about the “Increase in plasma concentration, triple knockout vs wild type mice” value (Mdr1a/Mdr1b/Bcrp) of the same compound?
Answer: The value was 1.7 fold.

Question: What about the Hemoglobin level [7] of the same compound?
Answer: Its Hemoglobin level is 70 g/L.

Question: What about the “Increase in rivaroxaban exposure” value [8] of the same compound?
Answer: Its value is 2.5–3 fold.

Question: What about the half-life ([9]; old patients) of the same compound?
Answer: Its half-life is 11 to 13 h.

Question: What about the Oral bioavailability [9] of the same compound?
Answer: Its Oral bioavailability is 80–100%.

Question: What about the “Part of the dose eliminated as unchanged drug in the urine” value [9] of the same compound?
Answer: Its value is “more than one third; also recorded: About one third”.

Question: And the “Increase in rivaroxaban AUC” value [10]?
Answer: Its value is “approximately 99%”.

Question: And the “Increase in rivaroxaban Cmax” value [10]?
Answer: Its value is roughly 64%.

From paper PMC5165251, “Rivaroxaban-Induced Hemorrhage Associated with ABCB1 Genetic Defect” (Frontiers in Pharmacology, 2016)
